Assays:
dermal fibroblasts = test: MTT cell viability and proliferation, dermal fibroblasts; format: cell-based, human
Text: A normal adult skin biopsy (6 mm) was obtained (n=1), with informed consent, from an individual attending the Oral Surgery Clinic, School of Dentistry, Wales College of Medicine, Cardiff. Following the application of a local anaesthetic, the dermal biopsy was collected and adult dermal fibroblast cultures established by single cell suspension technique, following enzymic degradation of the specimen. This technique has previously been reliably used to establish viable primary cultures of both oral and dermal fibroblasts in vitro (Cook et al, 2000; Stephens et al, 2001; 2003). Dermal fibroblasts were cultured in Fibroblast-Serum Containing Medium, containing Dulbecco's Modified Eagle's Medium (DMEM), supplemented with L-glutamine (2 mM), antibiotics (100 U/ml penicillin G sodium, […] streptomycin sulphate and 0.25 μg/ml amphotericin B) and 10% fetal calf serum (all purchased from Invitrogen Ltd., Paisley, U.K.). Dermal fibroblast cultures were maintained at 37° C., in a 5% CO2/95% air atmosphere, with the culture medium being changed every 2-3 days. Dermal fibroblasts were used between passage 7-17, for all experiments.
Prior to use, the PEP005/DMSO stock solution was removed from 4° C. storage and warmed to room temperature. The required volumes of PEP005/DMSO were aliquoted into a poly-propylene vessel and the PEP005/DMSO diluted to the required concentration (typically 0.01 μg/ml, 0.1 μg/ml, 1 μg/ml, 10 μg/ml and […]) in Fibroblast-Serum Containing Medium (for dermal fibroblast cultures) or serum-free, EpiLife® Medium (for epidermal keratinocyte cultures), with fresh PEP005/culture medium solutions being prepared daily, at the various concentrations above, due to solution stability. Prior to discarding PEP005/culture medium solutions, at least two volumes of 0.1% sodium hydroxide (Sigma Chemical Co.), in 95% ethanol/5% methanol (both from Fisher Scientific, Leicestershire, U.K.), was added to each solution, to decontaminate.
The MTT [3-(4,5-dimethyl-2-thiazolyl)-2,5-diphenyltetrazolium bromide] dye-reduction assay was employed for the assessment of dermal fibroblast and epidermal keratinocyte cell viability and proliferation, according to Cook et al (2000). Following trypzinisation, dermal fibroblast or epidermal keratinocyte were seeded in 96-well microtitre plates (VWR International Ltd., Leicestershire, U.K.), at a cell density of 2.5×10^3 cell/well and 5×10^3 cell/well, respectively. Following cell seeding for 24 h and 48 h, respectively, the dermal fibroblast and epidermal keratinocyte culture medium were replaced with culture medium (100 μl/well), containing 0, 0.01 μg/ml, 0.1 μg/ml, 1 μg/ml, 10 μg/ml or 100 μg/ml PEP005 (six culture wells per PEP005 concentration). […]

epidermal keratinocytes = test: MTT cell viability and proliferation, epidermal keratinocytes; format: cell-based, human; settings: 100 μg/ml PEP005
Procedure: Human, adult, epidermal keratinocytes, were purchased cryopreserved from Cascade Biologics Inc., Nottinghamshire, U.K. These cells (>500,000 viable cells/vial) were tested to be >70% viable, with the capacity to proliferate for at least 16 population doublings. The epidermal keratinocytes were cultured in serum-free, EpiLife® Medium (Cascade Biologics Inc.), supplemented with antibiotics (100 U/ml penicillin G sodium, […] streptomycin sulphate and 0.25 μg/ml amphotericin B) and EpiLife® Defined Growth Supplement (EDGS, consisting of purified bovine serum albumin, purified bovine transferring, hydrocortisone, recombinant human insulin-like growth factor type-1, prostaglandin E2 and recombinant human epidermal growth factor, Cascade Biologics Inc.). Epidermal keratinocytes cultures were maintained at 37° C., in a 5% CO2/95% air atmosphere, with the culture medium being changed every 2-3 days. Epidermal keratinocytes were used between 4-6 passages, for all experiments.
Prior to use, the PEP005/DMSO stock solution was removed from 4° C. storage and warmed to room temperature. […]

SMILES: C/C=C(/C)C(=O)O[C@H]1C(C)=C[C@]23C(=O)[C@@H](C=C(CO)[C@@H](O)[C@]12O)[C@H]1[C@@H](C[C@H]3C)C1(C)C [PEP005, ingenol-3-angelate]
- dermal fibroblast cell viability/proliferation (MTT) (dermal fibroblasts; 0.01 μg/ml PEP005, day 7): appeared to stimulate cell viability/proliferation
- dermal fibroblast cell viability/proliferation (MTT) (dermal fibroblasts; 0.1 μg/ml PEP005, day 7): appeared to stimulate cell viability/proliferation
- dermal fibroblast cell viability/proliferation (MTT) (dermal fibroblasts; 10 μg/ml PEP005, days 1, 3 and 5): stimulatory effect
- dermal fibroblast cell viability/proliferation (MTT) (dermal fibroblasts; 100 μg/ml PEP005, compared to untreated fibroblast controls): cytotoxic effect
- keratinocyte cell viability/proliferation (MTT) (epidermal keratinocytes): cytotoxic effect

From patent publication US20090215884A1, “METHOD FOR WOUND HEALING” (priority 2005, published 2009)
